Reference: PubChem BioAssay (NCI)
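Test compounds were applied to cells in 96-well plates for 48 hours at 5 doses. The concentration for 50% growth inhibition is given as GI50. TGI denotes the concentration required for complete inhibition of growth.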

Legend:
Assay in all cases: growth of human tumour cells (NCI), 48 h
786-0 renal = tested on: 786-0 renal
A498 renal = tested on: A498 renal
A549 NSCLC = tested on: A549 NSCLC
ACHN renal = tested on: ACHN renal
BT-549 breast = tested on: BT-549 breast
CAKI-1 renal = tested on: CAKI-1 renal
CCRF-CEM leukemia = tested on: CCRF-CEM leukemia
COLO 205 colon = tested on: COLO 205 colon
DU-145 prostate = tested on: DU-145 prostate
HCC-2998 colon = tested on: HCC-2998 colon
HCT-116 colon = tested on: HCT-116 colon
HCT-15 colon = tested on: HCT-15 colon
HL-60(TB) leukemia = tested on: HL-60(TB) leukemia
HOP-62 NSCLC = tested on: HOP-62 NSCLC
HOP-92 NSCLC = tested on: HOP-92 NSCLC
HS 578T breast = tested on: HS 578T breast
HT29 colon = tested on: HT29 colon
IGROV1 ovarian = tested on: IGROV1 ovarian
K-562 leukemia = tested on: K-562 leukemia
KM12 colon = tested on: KM12 colon
LOX IMVI melanoma = tested on: LOX IMVI melanoma
M14 melanoma = tested on: M14 melanoma
MALME-3M melanoma = tested on: MALME-3M melanoma
MCF7 breast = tested on: MCF7 breast
MDA-MB-231 breast = tested on: MDA-MB-231 breast
MDA-MB-435 = tested on: MDA-MB-435
MOLT-4 leukemia = tested on: MOLT-4 leukemia
NCI-H226 lung = tested on: NCI-H226 lung
NCI-H23 lung = tested on: NCI-H23 lung
NCI-H460 lung = tested on: NCI-H460 lung
NCI-H522 lung = tested on: NCI-H522 lung
NCI/ADR-RES ovarian = tested on: NCI/ADR-RES ovarian
OVCAR-3 ovarian = tested on: OVCAR-3 ovarian
OVCAR-4 ovarian = tested on: OVCAR-4 ovarian
OVCAR-5 ovarian = tested on: OVCAR-5 ovarian
OVCAR-8 ovarian = tested on: OVCAR-8 ovarian
PC-3 prostate = tested on: PC-3 prostate
RPMI-8226 leukemia = tested on: RPMI-8226 leukemia
RXF 393 renal = tested on: RXF 393 renal
SF-268 CNS = tested on: SF-268 CNS
SF-295 CNS = tested on: SF-295 CNS
SF-539 CNS = tested on: SF-539 CNS
SK-MEL-2 melanoma = tested on: SK-MEL-2 melanoma
SK-MEL-28 melanoma = tested on: SK-MEL-28 melanoma
SK-MEL-5 melanoma = tested on: SK-MEL-5 melanoma
SK-OV-3 ovarian = tested on: SK-OV-3 ovarian
SN12C renal = tested on: SN12C renal
SNB-19 CNS = tested on: SNB-19 CNS
SNB-75 CNS = tested on: SNB-75 CNS
SR leukemia = tested on: SR leukemia
SW-620 colon = tested on: SW-620 colon
T-47D breast = tested on: T-47D breast
TK-10 renal = tested on: TK-10 renal
U251 CNS = tested on: U251 CNS
UACC-257 melanoma = tested on: UACC-257 melanoma
UACC-62 melanoma = tested on: UACC-62 melanoma
UO-31 renal = tested on: UO-31 renal

Molecule `COc1cc(-c2nn(-c3cccc(NC(=O)c4ccccc4)c3)cc2-c2ccncc2)ccc1Cl` has a GI50 (786-0 renal) of 1.1 µM, a TGI (786-0 renal) greater than 100 µM and a GI50 (A498 renal) of 0.197 µM. The TGI (A498 renal) was 1.35 µM, the GI50 (A549 NSCLC) was 0.496 µM and the TGI (A549 NSCLC) was greater than 60.6 µM. For the same molecule, the GI50 (ACHN renal) was 0.72 µM, the TGI (ACHN renal) was greater than 100 µM and the GI50 (BT-549 breast) was 0.98 µM. For the same molecule, the TGI (BT-549 breast) was greater than 100 µM, the GI50 (CAKI-1 renal) was 0.836 µM and the TGI (CAKI-1 renal) was greater than 40.5 µM. It also gave a GI50 (CCRF-CEM leukemia) of 0.492 µM, a TGI (CCRF-CEM leukemia) greater than 100 µM and a GI50 (COLO 205 colon) of 0.522 µM. The TGI (COLO 205 colon) was 3.23 µM, the GI50 (DU-145 prostate) was 0.626 µM and the TGI (DU-145 prostate) was 27.1 µM. It also gave a GI50 (HCC-2998 colon) of 2.13 µM, a TGI (HCC-2998 colon) of 33.6 µM and a GI50 (HCT-116 colon) of 0.421 µM. The TGI (HCT-116 colon) was greater than 100 µM, the GI50 (HCT-15 colon) was 0.579 µM and the TGI (HCT-15 colon) was greater than 100 µM. It also gave a GI50 (HL-60(TB) leukemia) of 0.376 µM, a GI50 (HOP-62 NSCLC) of 2.49 µM and a TGI (HOP-62 NSCLC) greater than 100 µM. For the same molecule, the GI50 (HOP-92 NSCLC) was 0.269 µM, the TGI (HOP-92 NSCLC) was 2.06 µM and the GI50 (HS 578T breast) was 0.87 µM. For the same molecule, the TGI (HS 578T breast) was greater than 40.9 µM, the GI50 (HT29 colon) was 0.365 µM and the TGI (HT29 colon) was greater than 45 µM. It also gave a GI50 (IGROV1 ovarian) of 0.572 µM, a TGI (IGROV1 ovarian) greater than 100 µM and a GI50 (K-562 leukemia) of 0.39 µM. The TGI (K-562 leukemia) was greater than 100 µM, the GI50 (KM12 colon) was 0.467 µM and the TGI (KM12 colon) was 96.9 µM. For the same molecule, the GI50 (LOX IMVI melanoma) was 0.567 µM, the TGI (LOX IMVI melanoma) was greater than 100 µM and the GI50 (M14 melanoma) was 0.565 µM. It also gave a TGI (M14 melanoma) of 12.8 µM, a GI50 (MALME-3M melanoma) of 0.344 µM and a GI50 (MCF7 breast) of 0.344 µM. It also gave a TGI (MCF7 breast) greater than 100 µM, a GI50 (MDA-MB-231 breast) of 1.06 µM and a TGI (MDA-MB-231 breast) greater than 36.9 µM. For the same molecule, the GI50 (MDA-MB-435) was 0.184 µM, the TGI (MDA-MB-435) was 0.508 µM and the GI50 (MOLT-4 leukemia) was 0.701 µM. For the same molecule, the TGI (MOLT-4 leukemia) was greater than 100 µM, the GI50 (NCI-H226 lung) was 3.3 µM and the TGI (NCI-H226 lung) was greater than 100 µM. It also gave a GI50 (NCI-H23 lung) of 1.12 µM, a TGI (NCI-H23 lung) greater than 100 µM and a GI50 (NCI-H460 lung) of 0.366 µM. For the same molecule, the TGI (NCI-H460 lung) was greater than 33.2 µM, the GI50 (NCI-H522 lung) was 0.238 µM and the GI50 (NCI/ADR-RES ovarian) was 0.36 µM. For the same molecule, the TGI (NCI/ADR-RES ovarian) was greater than 100 µM, the GI50 (OVCAR-3 ovarian) was 0.313 µM and the TGI (OVCAR-3 ovarian) was 13.9 µM. The GI50 (OVCAR-4 ovarian) was 1.11 µM, the TGI (OVCAR-4 ovarian) was greater than 100 µM and the GI50 (OVCAR-5 ovarian) was 12.8 µM. It also gave a TGI (OVCAR-5 ovarian) greater than 100 µM, a GI50 (OVCAR-8 ovarian) of 0.995 µM and a TGI (OVCAR-8 ovarian) greater than 100 µM. It also gave a GI50 (PC-3 prostate) of 0.333 µM, a TGI (PC-3 prostate) greater than 33.5 µM and a GI50 (RPMI-8226 leukemia) of 0.457 µM. It also gave a TGI (RPMI-8226 leukemia) greater than 100 µM, a GI50 (RXF 393 renal) of 0.545 µM and a TGI (RXF 393 renal) greater than 25.2 µM. It also gave a GI50 (SF-268 CNS) of 0.596 µM, a TGI (SF-268 CNS) greater than 54.8 µM and a GI50 (SF-295 CNS) of 0.315 µM. It also gave a TGI (SF-295 CNS) of 1.44 µM, a GI50 (SF-539 CNS) of 0.413 µM and a TGI (SF-539 CNS) of 2.65 µM. It also gave a GI50 (SK-MEL-2 melanoma) of 0.326 µM, a TGI (SK-MEL-2 melanoma) of 2.1 µM and a GI50 (SK-MEL-28 melanoma) of 3.26 µM. The TGI (SK-MEL-28 melanoma) was greater than 100 µM, the GI50 (SK-MEL-5 melanoma) was 0.259 µM and the TGI (SK-MEL-5 melanoma) was 0.945 µM. The GI50 (SK-OV-3 ovarian) was 1.19 µM, the TGI (SK-OV-3 ovarian) was greater than 100 µM and the GI50 (SN12C renal) was 1.45 µM. It also gave a TGI (SN12C renal) greater than 100 µM, a GI50 (SNB-19 CNS) of 1.37 µM and a TGI (SNB-19 CNS) greater than 100 µM. It also gave a GI50 (SNB-75 CNS) of 0.575 µM, a TGI (SNB-75 CNS) greater than 100 µM and a GI50 (SR leukemia) of 0.25 µM. For the same molecule, the TGI (SR leukemia) was greater than 100 µM, the GI50 (SW-620 colon) was 0.451 µM and the TGI (SW-620 colon) was greater than 36.3 µM. It also gave a GI50 (T-47D breast) of 0.843 µM, a TGI (T-47D breast) greater than 100 µM and a GI50 (TK-10 renal) of 4.12 µM. The TGI (TK-10 renal) was greater than 83.8 µM, the GI50 (U251 CNS) was 0.592 µM and the TGI (U251 CNS) was 24.4 µM. The GI50 (UACC-257 melanoma) was 0.63 µM, the TGI (UACC-257 melanoma) was greater than 100 µM and the GI50 (UACC-62 melanoma) was 0.568 µM. It also gave a TGI (UACC-62 melanoma) greater than 100 µM and a GI50 (UO-31 renal) of 0.4 µM.
